Drawing on patent publication US20240425490A1, “SULFAMIDE RIBONUCLEOTIDE REDUCTASE (RNR) INHIBITORS AND USES THEREOF” (Boundless Bio, Inc., priority 2021, published 2024), this text covers IC50 for 21 compounds.

In the assay the target is T1, RNR (RNR1:RNR2 1:1) (Homo sapiens, UniProt P23921).
T1 sequence (P23921 1-792): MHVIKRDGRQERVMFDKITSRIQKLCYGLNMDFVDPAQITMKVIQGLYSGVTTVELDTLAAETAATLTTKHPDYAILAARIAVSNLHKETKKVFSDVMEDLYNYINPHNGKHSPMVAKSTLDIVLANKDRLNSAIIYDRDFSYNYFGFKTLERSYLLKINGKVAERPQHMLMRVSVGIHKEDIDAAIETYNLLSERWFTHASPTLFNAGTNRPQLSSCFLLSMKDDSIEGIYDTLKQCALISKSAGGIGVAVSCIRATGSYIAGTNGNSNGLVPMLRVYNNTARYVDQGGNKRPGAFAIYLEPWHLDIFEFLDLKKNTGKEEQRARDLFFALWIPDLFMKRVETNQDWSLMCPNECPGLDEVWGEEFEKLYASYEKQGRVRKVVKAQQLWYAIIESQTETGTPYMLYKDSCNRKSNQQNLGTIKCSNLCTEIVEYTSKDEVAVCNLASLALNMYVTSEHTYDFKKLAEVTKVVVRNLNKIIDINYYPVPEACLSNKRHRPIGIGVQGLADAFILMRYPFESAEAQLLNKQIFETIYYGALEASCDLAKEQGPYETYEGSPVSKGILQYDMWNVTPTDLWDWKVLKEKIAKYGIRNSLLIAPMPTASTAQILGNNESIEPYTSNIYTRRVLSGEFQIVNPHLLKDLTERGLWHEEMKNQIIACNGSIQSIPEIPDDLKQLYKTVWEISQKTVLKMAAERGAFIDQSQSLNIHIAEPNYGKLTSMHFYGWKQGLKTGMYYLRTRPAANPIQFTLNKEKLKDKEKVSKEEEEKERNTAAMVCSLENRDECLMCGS
The experiment in a line: RNR enzyme activity, rapid-fire mass spectrometry (RFMS) assay. Type of assay: biochemical. To be noted: RNR 50 nM, CDP 5 μM, ATP 1 mM, 37° C., 45 min, compounds screened up to 50 μM, read-out: RF/MS IC50. How it is done:
A rapid-fire mass spectrometry (RFMS) assay was used to assess RNR enzyme activity using a 384 well plate and a robotic platform.
The plate layout included two validated reference compounds (Triapine (3-AP) and Hydroxyurea (HU)): • A dose response in duplicate; top concentration: 5 μM (3-AP) and 250 μM (HU), semi-log dilutions. • Spike wells in triplicate randomly spotted at four concentrations: • 250 μM, 100 μM, 30 μM and 2 μM for HU • 5 μM, 2 μM, 0.6 μM and 0.04 μM for 3-AP
First, the multidrop pipes were saturated for 30 minutes with enzymatic solution. Then 30 μL of Stop solution was distributed in column 24. Next, 15 μL of enzyme was distributed in column 1 to 24. Next, a pre-incubation step of 15 minutes at room temperature occurred, followed by distribution of 15 μL of substrate solution (column 1 to 24). Next, the plate was incubated for 45 minutes at 37° C. 30 μL of Stop solution was distributed to columns 1 to 23.
The final parameters for the enzyme reactions were: • Incubation: 37° C., 45 min • [CDP]: 5 μM; [ATP]: 1 mM; [NADPH]: No • [RNR] final: 50 nM with 1:1 (RNR1:RNR2) ratio • Final volume: 30 μL • Stop solution: 6% HCOOH containing 2 μM of 15
As to `Cc1ccc(F)c([C@@H](C)[C@H](NS(=O)(=O)N2CCC3(CCCN(C)C3)CC2)c2n[nH]c(=O)o2)c1C` [Example 83, N-((1S,2R)-2-(6-fluoro-2,3-dimethylphenyl)-1-(5-oxo-4,5-dihydro-1,3,4-oxadiazol-2-yl)propyl)-2-methyl-2,9-diazaspiro[5.5]undecane-9-sulfonamide], the IC50 lay within 1 to 10 µM. Under `Cc1ccc(F)c([C@@H](C)[C@H](NS(=O)(=O)N2CCC(C(C)C)CC2)c2n[nH]c(=O)o2)c1C` [Example 38, N-((1S,2R)-2-(6-fluoro-2,3-dimethylphenyl)-1-(5-oxo-4,5-dihydro-1,3,4-oxadiazol-2-yl)propyl)-4-isopropylpiperidine-1-sulfonamide] stands 10 to 100 µM; under `Cc1ccc(F)c([C@H](C)[C@H](NS(=O)(=O)N2CCC(C(C)(C)C)CC2)c2n[nH]c(=O)o2)c1C` [Example 132, 4-(tert-butyl)-N-((1S,2S)-2-(6-fluoro-2,3-dimethylphenyl)-1-(5-oxo-4,5-dihydro-1,3,4-oxadiazol-2-yl)propyl)piperidine-1-sulfonamide], 1 to 10 µM. Under `Cc1ccc(F)c([C@H](C)[C@H](NS(=O)(=O)N2CCC(CCl)CC2)c2n[nH]c(=O)o2)c1C` [Example 40, 4-(chloromethyl)-N-((1S,2S)-2-(6-fluoro-2,3-dimethylphenyl)-1-(5-oxo-4,5-dihydro-1,3,4-oxadiazol-2-yl)propyl)piperidine-1-sulfonamide] stands 10 to 100 µM; under `CC(=O)NC1CCN(S(=O)(=O)N[C@H](c2n[nH]c(=O)o2)[C@@H](C)c2c(F)ccc(C)c2C)CC1` [Example 30, N-(1-(N-((1S,2S)-2-(6-fluoro-2,3-dimethylphenyl)-1-(5-oxo-4,5-dihydro-1,3,4-oxadiazol-2-yl)propyl)sulfamoyl)piperidin-4-yl)acetamide], 1 to 10 µM; under `Cc1ccc(F)c([C@H](C)[C@H](NS(=O)(=O)N2CCC(Oc3ccccc3)CC2)c2n[nH]c(=O)o2)c1C` [Example 54, N-((1S,2S)-2-(6-fluoro-2,3-dimethylphenyl)-1-(5-oxo-4,5-dihydro-1,3,4-oxadiazol-2-yl)propyl)-4-phenoxypiperidine-1-sulfonamide], 10 to 100 µM. `Cc1ccc(F)c([C@@H](C)[C@H](NS(=O)(=O)N2CCC[C@@](C)(O)C2)c2n[nH]c(=O)o2)c1C` [Example 22, (R)-N-((1S,2R)-2-(6-fluoro-2,3-dimethylphenyl)-1-(5-oxo-4,5-dihydro-1,3,4-oxadiazol-2-yl)propyl)-3-hydroxy-3-methylpiperidine-1-sulfonamide]: the IC50 is 10 to 100 µM. Under `Cc1ccc(F)c([C@H](C)[C@H](NS(=O)(=O)N2CCc3ccccc3C2)c2n[nH]c(=O)o2)c1C` [Example 136, N-((1S,2S)-2-(6-fluoro-2,3-dimethylphenyl)-1-(5-oxo-4,5-dihydro-1,3,4-oxadiazol-2-yl)propyl)-3,4-dihydroisoquinoline-2(1H)-sulfonamide] stands 1 to 10 µM; under `Cc1ccc(F)c([C@H](C)[C@H](NS(=O)(=O)N2CCC(C(F)F)CC2)c2n[nH]c(=O)o2)c1C` [Example 44, 4-(difluoromethyl)-N-((1S,2S)-2-(6-fluoro-2,3-dimethylphenyl)-1-(5-oxo-4,5-dihydro-1,3,4-oxadiazol-2-yl)propyl)piperidine-1-sulfonamide], 1 to 10 µM; under `Cc1ccc(F)c([C@H](C)[C@H](NS(=O)(=O)N2CCC(c3nncn3C)CC2)c2n[nH]c(=O)o2)c1C` [Example 53, N-((1S,2S)-2-(6-fluoro-2,3-dimethylphenyl)-1-(5-oxo-4,5-dihydro-1,3,4-oxadiazol-2-yl)propyl)-4-(4-methyl-4H-1,2,4-triazol-3-yl)piperidine-1-sulfonamide], 10 to 100 µM. The value for `Cc1ccc(F)c([C@@H](C)[C@H](NS(=O)(=O)N2CCC(C)CC2)c2n[nH]c(=O)o2)c1C` [Example 115, N-((1S,2R)-2-(6-fluoro-2,3-dimethylphenyl)-1-(5-oxo-4,5-dihydro-1,3,4-oxadiazol-2-yl)propyl)-4-methylpiperidine-1-sulfonamide] was 0.1 to 1 µM. Regarding `Cc1ccc(F)c([C@@H](C)[C@H](NS(=O)(=O)N2C[C@H]3CCC[C@H]3C2)c2n[nH]c(=O)o2)c1C` [Example 4, (3aR,6aS)-N-((1S,2R)-2-(6-Fluoro-2,3-dimethylphenyl)-1-(5-oxo-4,5-dihydro-1,3,4-oxadiazol-2-yl)propyl)hexahydrocyclopenta[c]pyrrole-2(1H)-sulfonamide], the IC50 lay within 0.1 to 1 µM. Under `Cc1ccc(F)c([C@@H](C)[C@H](NS(=O)(=O)N2CCC(C)CC2C)c2n[nH]c(=O)o2)c1C` (stereo partly drawn) [Example 8, N-((1S,2R)-2-(6-fluoro-2,3-dimethylphenyl)-1-(5-oxo-4,5-dihydro-1,3,4-oxadiazol-2-yl)propyl)-2,4-dimethylpiperidine-1-sulfonamide] stands 1 to 10 µM. In the case of `Cc1ccc(F)c([C@@H](C)[C@H](NS(=O)(=O)N2CC3CCCC(C3)C2)c2n[nH]c(=O)o2)c1C` [Example 43, N-((1S,2R)-2-(6-fluoro-2,3-dimethylphenyl)-1-(5-oxo-4,5-dihydro-1,3,4-oxadiazol-2-yl)propyl)-3-zabicyclo[3.3.1]nonane-3-sulfonamide], the IC50 is 1 to 10 µM. On to `Cc1ccc(F)c([C@H](C)[C@H](NS(=O)(=O)N2CCCC(C)(C)C2)c2n[nH]c(=O)o2)c1C` [Example 119, N-((1S,2S)-2-(6-fluoro-2,3-dimethylphenyl)-1-(5-oxo-4,5-dihydro-1,3,4-oxadiazol-2-yl)propyl)-3,3-dimethylpiperidine-1-sulfonamide], for which the IC50 is 1 to 10 µM.

On to `C#CC1CCN(S(=O)(=O)N[C@H](c2n[nH]c(=O)o2)[C@H](C)c2c(F)ccc(C)c2C)CC1` [Example 48, 4-ethynyl-N-((1S,2R)-2-(6-fluoro-2,3-dimethylphenyl)-1-(5-oxo-4,5-dihydro-1,3,4-oxadiazol-2-yl)propyl)piperidine-1-sulfonamide], for which the IC50 lay within 1 to 10 µM.

With `Cc1ccc(F)c([C@@H](C)[C@H](NS(=O)(=O)N2CCc3ccc(Cl)c(Cl)c3C2)c2n[nH]c(=O)o2)c1C` [Example 108, 7,8-dichloro-N-((1S,2R)-2-(6-fluoro-2,3-dimethylphenyl)-1-(5-oxo-4,5-dihydro-1,3,4-oxadiazol-2-yl)propyl)-3,4-dihydroisoquinoline-2(1H)-sulfonamide], the IC50 is 0.1 to 1 µM. Regarding `Cc1ccc(F)c([C@@H](C)[C@H](NS(=O)(=O)N2CCC(Oc3ccccn3)CC2)c2n[nH]c(=O)o2)c1C` [Example 70, N-((1S,2R)-2-(6-fluoro-2,3-dimethylphenyl)-1-(5-oxo-4,5-dihydro-1,3,4-oxadiazol-2-yl)propyl)-4-(pyridin-2-yloxy)piperidine-1-sulfonamide], the IC50 lay in the range of 0.1 to 1 µM. As to `Cc1ccc(F)c(C(C)[C@H](NS(=O)(=O)N2CC3C(C2)C3(F)F)c2n[nH]c(=O)o2)c1C` (stereo partly drawn) [Example 106, 6,6-difluoro-N-((1S)-2-(6-fluoro-2,3-dimethylphenyl)-1-(5-oxo-4,5-dihydro-1,3,4-oxadiazol-2-yl)propyl)-3-azabicyclo[3.1.0]hexane-3-sulfonamide], the IC50 fell in the range of 0.1 to 1 µM. The value for `Cc1ccc(F)c(C(C)[C@H](NS(=O)(=O)N2CCCC(N(C)C)C2)c2n[nH]c(=O)o2)c1C` (stereo partly drawn) [Example 25, 3-(dimethylamino)-N-((1S)-2-(6-fluoro-2,3-dimethylphenyl)-1-(5-oxo-4,5-dihydro-1,3,4-oxadiazol-2-yl)propyl)piperidine-1-sulfonamide] was 10 to 100 µM; that for `Cc1ccc(F)c([C@H](C)[C@H](NS(=O)(=O)N2CCC(C3CCCCC3)CC2)c2n[nH]c(=O)o2)c1C` [Example 10, 4-cyclohexyl-N-((1S,2S)-2-(6-fluoro-2,3-dimethylphenyl)-1-(5-oxo-4,5-dihydro-1,3,4-oxadiazol-2-yl)propyl)piperidine-1-sulfonamide] was 10 to 100 µM.
